Results on 13 compounds are retold here after patent US12599672B2, “KRAS proteolysis targeting chimeras” (PAQ Therapeutics Inc., priority 2023, dated 2026).

One test has as its target T1, KRAS G12D (Homo sapiens, UniProt P01116, G12D).
T1 construct: AsPc-1-KRAS (G12D)-HiBit-KI cell (Pharmaron); host or cells: AsPc-1-KRAS (G12D)-HiBit-KI cells (HiBiT knock-in at the endogenous KRAS locus)
As to the kind of experiment: KRAS G12D HiBit assay. To be noted: AsPc-1-KRAS (G12D)-HiBit-KI cell, compound treatment for 24 hours; for DC50: absolute DC50. The class given is cell-based. The method, then: Day 1. […] Allowed cells to reach approximately 80% confluence before splitting. Rinsed cultivated cells in T-75 flasks with 5 mL PBS (Solarbio, P1020-500). […] Inactivated trypsin by adding excessive serum containing medium. Harvested the cells from flask into cell culture medium and counted the cell number.
Day 2. Test compounds were dissolved at 0.3 mM in DMSO (Solarbio, D8371) as stock solution. […] Performed 3-fold, 10-points dilution via transferring 15 μL compound into 30 μL DMSO by using TECAN liquid handler (TECAN, Freedom EVO200).
Day 3. After compound treatment for 24 hours, removed the plate from incubators and equilibrated at room temperature for 15 minutes. Prepared the HiBit reagent (Promega, N3040) by mixing 10 mL of Nano-Glo®-HiBiT Lytic Buffer with 200 μL of Nano-Glo®-HiBiT Lytic Substrate and 100 μL of LgBiT Protein. Added 20 μL of HiBit reagent into each well of the cell plate and spun the plates at room temperature at 1,000 RPM for 1 minute.
The inhibition activity was calculated using the following formula:
(§1) [formula] where HC (high control) is obtained from cells treated with 0.1% DMSO only.
For orientation: The HiBiT peptide binds its large partner to form an active luciferase.

In the next test the target is T2, KRAS G12V (Homo sapiens, UniProt P01116, G12V).
T2 construct: SW620-KRAS (G12V)-HiBit-KI cell (Pharmaron); host or cells: SW620-KRAS (G12V)-HiBit-KI cells (HiBiT knock-in at the endogenous KRAS locus)
T2 sequence (P01116 1-188 isoform P01116-2 G12V): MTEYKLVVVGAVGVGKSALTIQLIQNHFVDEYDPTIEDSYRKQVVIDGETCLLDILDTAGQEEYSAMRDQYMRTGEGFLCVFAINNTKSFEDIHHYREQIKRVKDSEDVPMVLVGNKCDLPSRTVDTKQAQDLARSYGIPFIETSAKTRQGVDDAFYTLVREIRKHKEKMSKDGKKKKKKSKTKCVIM
As to the kind of experiment: KRAS G12V HiBit assay. It counts as cell-based. Particulars: SW620-KRAS (G12V)-HiBit-KI cells, compound treatment for 24 hours, class symbols. How it is done: Day 1. […] Rinsed cultivated cells in T-75 flasks with 5 mL PBS (Solarbio, P1020-500). […] Inactivated trypsin by adding excessive serum containing medium. Harvested the cells from flask into cell culture medium and counted the cell number.
Day 2. Test compounds were dissolved at 0.3 mM in DMSO (Solarbio, D8371) as stock solution. […] Performed 3-fold, 10-points dilution via transferring 15 μL compound into 30 μL DMSO by using TECAN liquid handler (TECAN, Freedom EVO200). […] After compound treatment for 24 hours, the plate was removed from incubators and equilibrated at room temperature for 15 minutes. Prepare the HiBit reagent (Promega, N3040) by mixing 10 mL of Nano-Glo®-HiBiT Lytic Buffer with 200 μL of Nano-Glo®-HiBiT Lytic Substrate and 100 μL of LgBiT Protein. Added 20 μL of HiBit reagent into each well of the cell plate and spun the plates at room temperature at 1,000 RPM for 1 minute.
The degradation activity was calculated using the following formula:
as §1

Where [1] appears, read: numeric bounds given in place of class symbols.

T1 sequence (P01116 1-188 isoform P01116-2 G12D): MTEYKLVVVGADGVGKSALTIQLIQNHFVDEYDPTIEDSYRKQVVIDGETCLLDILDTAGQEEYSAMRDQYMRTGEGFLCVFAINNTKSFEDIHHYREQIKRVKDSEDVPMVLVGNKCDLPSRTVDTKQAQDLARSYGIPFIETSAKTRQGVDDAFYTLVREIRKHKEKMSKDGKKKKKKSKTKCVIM

For `C#Cc1c(F)ccc2cc(O)cc(-c3ncc4c(N5CCC[C@@](C)(O)C5)nc(OC[C@@]56CCCN5[C@H](COC(=O)N5CCN(CC#CCOc7cccc8c7n(C)c(=O)n8C7CCC(=O)NC7=O)CC5)CC6)nc4c3F)c12` (stereo partly drawn) [Compound 376, ((3S,7aS)-7a-(((7-(8-ethynyl-7-fluoro-3-hydroxynaphthalen-1-yl)-8-fluoro-4-((R)-3-hydroxy-3-methylpiperidin-1-yl)pyrido[4,3-d]pyrimidin-2-yl)oxy)methyl)hexahydro-1H-pyrrolizin-3-yl)methyl 4-(4-((1-(2,6-dioxopiperidin-3-yl)-3-methyl-2-oxo-2,3-dihydro-1H-benzo[d]imidazol-4-yl)oxy)but-2-yn-1-yl)piperazine-1-carboxylate], the DC50 at KRAS G12D (setting [1]) and on KRAS G12V was > 100 nM throughout.

`C#Cc1c(F)ccc2cccc(-c3ncc4c(N5CCC[C@@](C)(O)C5)nc(OCC5(CN6CCC(N7CCC(c8cccc9c8n(C)c(=O)n9C8CCC(=O)NC8=O)CC7)CC6)CC5)nc4c3F)c12` (some centres unmarked) [Compound 74]: the values for the DC50 at KRAS G12D (class symbols) and on KRAS G12V were > 300 nM and > 100 nM, respectively.

Regarding `C#Cc1c(F)ccc2cc(O)cc(-c3ncc4c(N5CCC[C@@](C)(O)C5)nc(OCC5(CN6CCN(Cc7cccc8c7n(C)c(=O)n8C7CCC(=O)NC7=O)CC6)CC5)nc4c3F)c12` (some centres unmarked) [Compound 63], the figures for the DC50 on KRAS G12D (class symbols) and at KRAS G12V were > 300 nM and > 100 nM, respectively.

On to `CCc1c(F)ccc2cccc(-c3ncc4c(N5CCC[C@@](C)(O)C5)nc(OC[C@@]56CCCN5[C@H](COC(=O)NCCOCCOc5ccc7c(c5)n(C)c(=O)n7C5CCC(=O)NC5=O)CC6)nc4c3F)c12` (stereo partly drawn) [Compound 103, ((3S,7aS)-7a-(((7-(8-ethyl-7-fluoronaphthalen-1-yl)-8-fluoro-4-((R)-3-hydroxy-3-methylpiperidin-1-yl)pyrido[4,3-d]pyrimidin-2-yl)oxy)methyl)hexahydro-1H-pyrrolizin-3-yl)methyl (2-(2-((1-(2,6-dioxopiperidin-3-yl)-3-methyl-2-oxo-2,3-dihydro-1H-benzo[d]imidazol-5-yl)oxy)ethoxy)ethyl) carbamate], for which, on KRAS G12D (class symbols), the DC50 was > 300 nM and the Dmax was in the range of 15 to 50%. Besides, the DC50 on KRAS G12V was > 100 nM.

For the compound `C#Cc1c(F)ccc2cccc(-c3ncc4c(N5CCC[C@@](C)(O)C5)nc(OC[C@@]56CCCN5[C@H](COC(=O)N5CC(OCC7CCN(c8ccc9c(c8)n(C)c(=O)n9C8CCC(=O)NC8=O)CC7)C5)CC6)nc4c3F)c12` (stereo partly drawn) [Compound 130, ((3S,7aS)-7a-(((7-(8-Ethynyl-7-fluoronaphthalen-1-yl)-8-fluoro-4-((R)-3-hydroxy-3-methylpiperidin-1-yl)pyrido[4,3-d]pyrimidin-2-yl)oxy)methyl)hexahydro-1H-pyrrolizin-3-yl)methyl 3-((1-(1-(2,6-dioxopiperidin-3-yl)-3-methyl-2-oxo-2,3-dihydro-1H-benzo[d]imidazol-5-yl)piperidin-4-yl)methoxy) azetidine-1-carboxylate], the DC50 at KRAS G12D (class symbols) was > 300 nM; at KRAS G12V it was > 100 nM.

For `C#Cc1c(F)ccc2cc(O)cc(-c3ncc4c(N5CCOCC5)nc(OCC5(CN6CCN(CC7CCN(c8ccc9c(c8)n(C)c(=O)n9C8CCC(=O)NC8=O)CC7)CC6)CC5)nc4c3F)c12` (centres unmarked) [Compound 18, 3-[5-[4-[[4-[[1-[[7-(8-Ethynyl-7-fluoro-3-hydroxy-1-naphthyl)-8-fluoro-4-morpholino-pyrido[4,3-d]pyrimidin-2-yl]oxymethyl]cyclopropyl]methyl]piperazin-1-yl]methyl]-1-piperidyl]-3-methyl-2-oxo-benzimidazol-1-yl]piperidine-2,6-dione], on KRAS G12D (class symbols), the DC50 is > 300 nM and the Dmax was 15 to 50%. At KRAS G12V, the DC50 was > 100 nM.

For the compound `Cn1c(=O)n(C2CCC(=O)NC2=O)c2cc(C3CCN(CC4CCN(C(=O)CN5CCN(c6nccc(-c7noc([C@@]8(C)CCCc9sc(N)c(C#N)c98)n7)n6)CC5)CC4)CC3)ccc21` (some centres unmarked) [Compound 223], the DC50 on KRAS G12D (setting [1]) is > 231 nM; on KRAS G12V, > 100 nM.

For `C#Cc1c(F)ccc2cc(O)cc(-c3ncc4c(N5CCC[C@@](C)(O)C5)nc(OCC5(CN6CCC(CN7CCN(c8ccc9c(c8)n(C)c(=O)n9C8CCC(=O)NC8=O)CC7)CC6)CC5)nc4c3F)c12` (some centres unmarked) [Compound 25], the DC50 was < 100 nM on KRAS G12D (class symbols) and < 10 nM at KRAS G12V.

Turning to `C#Cc1c(F)ccc2cccc(-c3ncc4c(N5CCC[C@@](C)(O)C5)nc(OC[C@@]56CCCN5[C@H](COC(=O)N5CCC(CN7CCC(c8ccc9c(c8)n(C)c(=O)n9C8CCC(=O)NC8=O)CC7)CC5)CC6)nc4c3F)c12` (stereo partly drawn) [Compound 3, [(3S,8S)-8-[[7-(8-Ethynyl-7-fluoro-1-naphthyl)-8-fluoro-4-[(3R)-3-hydroxy-3-methyl-1-piperidyl]pyrido[4,3-d]pyrimidin-2-yl]oxymethyl]-1,2,3,5,6,7-hexahydropyrrolizin-3-yl]methyl 4-[[4-[1-(2,6-dioxo-3-piperidyl)-3-methyl-2-oxo-benzimidazol-5-yl]-1-piperidyl]methyl]piperidine-1-carboxylate], the DC50 at KRAS G12D (class symbols) is < 100 nM; at KRAS G12V it was > 100 nM. The Dmax at KRAS G12D (class symbols) is > 50%.

As for `C#Cc1c(F)ccc2cccc(-c3ncc4c(N5CCCC(C#N)CC5)nc(OC[C@@]56CCCN5[C@H](COC(=O)NCCOCCOc5ccc7c(c5)n(C)c(=O)n7C5CCC(=O)NC5=O)CC6)nc4c3F)c12` (stereo partly drawn) [Compound 117, ((3S,7aS)-7a-(((4-(4-Cyanoazepan-1-yl)-7-(8-ethynyl-7-fluoronaphthalen-1-yl)-8-fluoropyrido[4,3-d]pyrimidin-2-yl)oxy)methyl)hexahydro-1H-pyrrolizin-3-yl)methyl (2-(2-((1-(2,6-dioxopiperidin-3-yl)-3-methyl-2-oxo-2,3-dihydro-1H-benzo[d]imidazol-5-yl)oxy)ethoxy)ethyl) carbamate], the DC50 on KRAS G12D (class symbols) is > 300 nM; at KRAS G12V, > 100 nM.

As for `CCc1c(F)ccc2cc(O)cc(-c3ncc4c(N5CCC[C@@](C)(O)C5)nc(OC[C@@]56CCCN5[C@H](CN(C)C(=O)c5ccc(CN7CCC(c8ccc9c(c8)n(C)c(=O)n9C8CCC(=O)NC8=O)CC7)cc5)CC6)nc4c3F)c12` (stereo partly drawn) [Compound 503, 4-((4-(1-(2,6-dioxopiperidin-3-yl)-3-methyl-2-oxo-2,3-dihydro-1H-benzo[d]imidazol-5-yl)piperidin-1-yl)methyl)-N-(((3S,7aS)-7a-(((7-(8-ethyl-7-fluoro-3-hydroxynaphthalen-1-yl)-8-fluoro-4-((R)-3-hydroxy-3-methylpiperidin-1-yl)pyrido[4,3-d]pyrimidin-2-yl)oxy)methyl)hexahydro-1H-pyrrolizin-3-yl)methyl)-N-methylbenzamide], the DC50 at KRAS G12D (class symbols) is < 100 nM; at KRAS G12V it was < 10 nM.

As to `C#Cc1c(F)ccc2cccc(-c3ncc4c(N5CCC[C@@](C)(O)C5)nc(OCC5(CN6CCC(CN7CCN(c8cccc9c8n(C)c(=O)n9C8CCC(=O)NC8=O)CC7)CC6)CC5)nc4c3F)c12` (some centres unmarked) [Compound 73], the DC50 was > 300 nM on KRAS G12D (class symbols) and > 100 nM on KRAS G12V.

Turning to `CCc1c(F)ccc2cc(O)cc(-c3ncc4c(N5CCC(O)CC5)nc(OC[C@@]56CCCN5[C@H](COC(=O)N5CCC7(CC5)CC(N5CCC(c8ccc9c(c8)n(C)c(=O)n9C8CCC(=O)NC8=O)CC5)C7)CC6)nc4c3F)c12` (stereo partly drawn) [Compound 358, ((3S,7aS)-7a-(((7-(8-ethyl-7-fluoro-3-hydroxynaphthalen-1-yl)-8-fluoro-4-(4-hydroxypiperidin-1-yl)pyrido[4,3-d]pyrimidin-2-yl)oxy)methyl)hexahydro-1H-pyrrolizin-3-yl)methyl 2-(4-(1-(2,6-dioxopiperidin-3-yl)-3-methyl-2-oxo-2,3-dihydro-1H-benzo[d]imidazol-5-yl)piperidin-1-yl)-7-azaspiro[3.5]nonane-7-carboxylate], the results for the DC50 on KRAS G12D (class symbols) and on KRAS G12V were < 100 nM and < 10 nM, respectively.
